BindingDB's records for PubMed 39128361 (Xi'an Jiaotong University)

Test: Inhibition of pERK (unknown origin)

IC50: 7 nM
Structure (SMILES): CC(=O)N1CCN(c2ccc(Nc3nccc(-c4sc(C(C)C)nc4-c4cccc(NS(=O)(=O)c5ccccc5)c4)n3)cn2)CC1
